Results from PubChem BioAssay (NCI).
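Five compound concentrations were applied to cells in 96-well plates for 48 hours; endpoints were derived by simple linear interpolation of the resulting dose-response curve. GI50 is the concentration that inhibits growth by half. The concentration for full growth arrest is given as TGI.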

How the values were obtained:
Test in all cases: NCI tumour cell line growth inhibition, 48 h
[1] = system: UACC-62 melanoma
[2] = system: SK-MEL-2 melanoma
[3] = system: HCC-2998 colon
[4] = system: OVCAR-8 ovarian
[5] = system: SF-268 CNS
[6] = system: OVCAR-3 ovarian
[7] = system: SK-MEL-5 melanoma
[8] = system: HCT-15 colon
[9] = system: OVCAR-4 ovarian
[10] = system: IGROV1 ovarian
[11] = system: HCT-116 colon
[12] = system: KM12 colon
[13] = system: SN12C renal
[14] = system: MDA-MB-231 breast
[15] = system: HOP-92 NSCLC
[16] = system: MOLT-4 leukemia
[17] = system: HS 578T breast
[18] = system: SK-MEL-28 melanoma
[19] = system: LOX IMVI melanoma
[20] = system: RPMI-8226 leukemia
[21] = system: UACC-257 melanoma
[22] = system: CAKI-1 renal
[23] = system: UO-31 renal
[24] = system: SF-295 CNS
[25] = system: MCF7 breast
[26] = system: ACHN renal
[27] = system: SW-620 colon
[28] = system: BT-549 breast
[29] = system: RXF 393 renal
[30] = system: DU-145 prostate
[31] = system: K-562 leukemia
[32] = system: MDA-MB-435
[33] = system: HT29 colon
[34] = system: HOP-62 NSCLC
[35] = system: MALME-3M melanoma
[36] = system: COLO 205 colon
[37] = system: NCI-H23 lung
[38] = system: 786-0 renal
[39] = system: A498 renal
[40] = system: SK-OV-3 ovarian
[41] = system: TK-10 renal
[42] = system: SNB-19 CNS
[43] = system: NCI-H460 lung
[44] = system: NCI-H226 lung
[45] = system: EKVX NSCLC
[46] = system: SNB-75 CNS
[47] = system: M14 melanoma
[48] = system: SF-539 CNS
[49] = system: HL-60(TB) leukemia
[50] = system: NCI-H522 lung
[51] = system: NCI/ADR-RES ovarian
[52] = system: PC-3 prostate
[53] = system: CCRF-CEM leukemia
[54] = system: OVCAR-5 ovarian
[55] = system: U251 CNS
[56] = system: A549 NSCLC

Compound: CC[C@H](C)[C@H](NC(=O)C12CC(NC)(C1)C2)C(=O)N(C)[C@H](C[C@@H](OC(C)=O)c1nc(C(=O)N[C@@H](Cc2ccccc2)C[C@H](C)C(=O)OC)cs1)C(C)C
- GI50 [1]: 0.0842 µM
- TGI [1]: > 25 µM
- GI50 [2]: 0.171 µM
- GI50 [3]: 0.349 µM
- TGI [3]: > 25 µM
- GI50 [4]: 0.633 µM
- TGI [4]: > 25 µM
- GI50 [5]: 0.355 µM
- TGI [5]: > 25 µM
- GI50 [6]: 0.055 µM
- TGI [6]: 0.511 µM
- GI50 [7]: 0.103 µM
- TGI [7]: 0.999 µM
- GI50 [8]: 1.11 µM
- TGI [8]: > 17.1 µM
- GI50 [9]: 3.83 µM
- TGI [9]: > 25 µM
- GI50 [10]: 0.181 µM
- TGI [10]: > 25 µM
- GI50 [11]: 0.0969 µM
- GI50 [12]: 0.179 µM
- TGI [12]: > 17.6 µM
- GI50 [13]: 0.585 µM
- TGI [13]: > 25 µM
- GI50 [14]: 0.576 µM
- TGI [14]: > 25 µM
- GI50 [15]: 7.17 µM
- TGI [15]: > 25 µM
- GI50 [16]: 0.649 µM
- TGI [16]: > 25 µM
- GI50 [17]: 0.234 µM
- TGI [17]: 15.1 µM
- GI50 [18]: 2.13 µM
- TGI [18]: > 25 µM
- GI50 [19]: 0.209 µM
- TGI [19]: > 25 µM
- GI50 [20]: 0.0806 µM
- TGI [20]: 5.83 µM
- GI50 [21]: 19.8 µM
- TGI [21]: > 25 µM
- GI50 [22]: 6.42 µM
- TGI [22]: > 25 µM
- GI50 [23]: 1.94 µM
- TGI [23]: > 25 µM
- GI50 [24]: 0.401 µM
- TGI [24]: 2.17 µM
- GI50 [25]: 0.0439 µM
- TGI [25]: > 25 µM
- GI50 [26]: 1.39 µM
- TGI [26]: > 25 µM
- GI50 [27]: 0.159 µM
- TGI [27]: > 25 µM
- GI50 [28]: 0.0972 µM
- TGI [28]: 1.02 µM
- GI50 [29]: 0.16 µM
- TGI [29]: 1.22 µM
- GI50 [30]: 0.199 µM
- TGI [30]: 3.02 µM
- GI50 [31]: 0.0534 µM
- TGI [31]: > 25 µM
- GI50 [32]: 0.0297 µM
- TGI [32]: 0.25 µM
- GI50 [33]: 0.138 µM
- TGI [33]: 1.33 µM
- GI50 [34]: 0.542 µM
- TGI [34]: > 25 µM
- GI50 [35]: 0.329 µM
- TGI [35]: > 25 µM
- GI50 [36]: 0.189 µM
- TGI [36]: 1.56 µM
- GI50 [37]: 0.79 µM
- TGI [37]: > 25 µM
- GI50 [38]: 0.237 µM
- TGI [38]: > 11.7 µM
- GI50 [39]: 0.525 µM
- TGI [39]: > 8 µM
- GI50 [40]: 0.786 µM
- TGI [40]: > 25 µM
- GI50 [41]: 3.7 µM
- TGI [41]: > 25 µM
- GI50 [42]: 0.615 µM
- TGI [42]: > 25 µM
- GI50 [43]: 0.282 µM
- TGI [43]: > 25 µM
- GI50 [44]: 1.71 µM
- TGI [44]: > 25 µM
- GI50 [45]: 2.13 µM
- TGI [45]: > 25 µM
- GI50 [46]: 0.0928 µM
- TGI [46]: > 25 µM
- GI50 [47]: 0.237 µM
- GI50 [48]: 0.421 µM
- TGI [48]: 1.5 µM
- GI50 [49]: 0.0557 µM
- TGI [49]: 0.163 µM
- GI50 [50]: 0.0346 µM
- TGI [50]: 0.368 µM
- GI50 [51]: > 25 µM
- TGI [51]: > 25 µM
- GI50 [52]: 0.208 µM
- TGI [52]: > 25 µM
- GI50 [53]: 0.221 µM
- TGI [53]: 2.41 µM
- GI50 [54]: 1.52 µM
- TGI [54]: > 25 µM
- GI50 [55]: 0.434 µM
- TGI [55]: > 25 µM
- GI50 [56]: 1.11 µM
- TGI [56]: > 25 µM

Compound: N#C/C(=C\c1ccc2c(c1)OCO2)n1nnc2ccccc21
- GI50 [1]: 0.45 µM
- TGI [1]: 18.5 µM
- GI50 [2]: 1.23 µM
- TGI [2]: 26.9 µM
- GI50 [3]: 1.86 µM
- TGI [3]: 7.23 µM
- GI50 [4]: 1.76 µM
- TGI [4]: > 100 µM
- GI50 [5]: 3.22 µM
- TGI [5]: 20.5 µM
- GI50 [6]: 0.357 µM
- TGI [6]: 14.3 µM
- GI50 [7]: 1.62 µM
- TGI [7]: 12.6 µM
- GI50 [8]: 0.395 µM
- TGI [8]: 13.8 µM
- GI50 [9]: 1.66 µM
- TGI [9]: 20.3 µM
- GI50 [10]: 0.716 µM
- TGI [10]: 11.8 µM
- GI50 [11]: 0.439 µM
- TGI [11]: 17.4 µM
- GI50 [12]: 0.797 µM
- TGI [12]: > 100 µM
- GI50 [13]: 1.32 µM
- TGI [13]: 14.8 µM
- GI50 [14]: 1.7 µM
- TGI [14]: 7.73 µM
- GI50 [15]: 0.81 µM
- TGI [15]: 3.31 µM
- GI50 [16]: 2.42 µM
- TGI [16]: > 100 µM
- GI50 [17]: 2.53 µM
- TGI [17]: 9.36 µM
- GI50 [18]: 1.24 µM
- TGI [18]: 17.6 µM
- GI50 [19]: 0.99 µM
- TGI [19]: 25 µM
- GI50 [20]: 2.19 µM
- TGI [20]: > 100 µM
- GI50 [21]: 6.68 µM
- TGI [21]: 62.4 µM
- GI50 [22]: 0.518 µM
- TGI [22]: 13.1 µM
- GI50 [23]: 1.76 µM
- TGI [23]: 12.7 µM
- GI50 [25]: 0.417 µM
- TGI [25]: 14.1 µM
- GI50 [26]: 0.784 µM
- TGI [26]: 8.53 µM
- GI50 [27]: 0.489 µM
- TGI [27]: > 100 µM
- GI50 [28]: 0.938 µM
- TGI [28]: 15 µM
- GI50 [29]: 0.986 µM
- TGI [29]: 5.31 µM
- GI50 [30]: 1.9 µM
- TGI [30]: 13.1 µM
- GI50 [31]: 0.361 µM
- TGI [31]: > 100 µM
- GI50 [32]: 0.2 µM
- TGI [32]: 0.501 µM
- GI50 [33]: 0.383 µM
- TGI [33]: > 100 µM
- GI50 [34]: 2.41 µM
- TGI [34]: 14.9 µM
- GI50 [35]: 1.4 µM
- TGI [35]: 23.4 µM
- GI50 [37]: 3.6 µM
- TGI [37]: 22.6 µM
- GI50 [38]: 2.01 µM
- TGI [38]: 12.9 µM
- GI50 [39]: 1.76 µM
- TGI [39]: 5.28 µM
- GI50 [40]: 2.61 µM
- TGI [40]: 17 µM
- GI50 [41]: 2.2 µM
- TGI [41]: 8.55 µM
- GI50 [42]: 1.42 µM
- TGI [42]: 13.3 µM
- GI50 [43]: 2.86 µM
- TGI [43]: > 100 µM
- GI50 [44]: 2.21 µM
- TGI [44]: 16 µM
- GI50 [45]: 1.54 µM
- TGI [45]: 16.3 µM
- GI50 [46]: 0.179 µM
- TGI [46]: 1.51 µM
- GI50 [47]: 0.424 µM
- TGI [47]: 23.5 µM
- GI50 [48]: 1.48 µM
- TGI [48]: 6.27 µM
- GI50 [49]: 0.33 µM
- TGI [49]: > 100 µM
- GI50 [50]: 0.27 µM
- TGI [50]: 15.2 µM
- GI50 [51]: 0.405 µM
- TGI [51]: 17.2 µM
- GI50 [52]: 1.35 µM
- TGI [52]: 24.3 µM
- GI50 [53]: 0.491 µM
- TGI [53]: > 100 µM
- GI50 [54]: 2.22 µM
- TGI [54]: 7.13 µM
- GI50 [55]: 1.54 µM
- TGI [55]: 21.1 µM
- GI50 [56]: 0.991 µM
- TGI [56]: 48.1 µM
